From PubChem BioAssay AID2743 (NMMLSC, 2010)
Where “and” joins values, the source holds several entries; their conditions need not be identical. Equal values may be shown once. Calls of active or inactive are those of the source.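 The calls were made as follows: active = fitted half-maximal concentration for change in GFP expression of 33 µM or less; inactive = the rest.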

test: potency of AGP1-GFP expression modulators in yeast, dose response, cell-based, flow cytometry, S. cerevisiae, MLPCN hits (AID 2743); settings: S. cerevisiae AGP1-GFP strain, flow cytometry GFP, 3 h; at 33 µM (top of the series)

Compound	GFP fluorescence (kMESF)
CCOc1cc(C=C2C(=O)c3ccccc3C2=O)ccc1OCC(=O)Nc1ccc(C)cc1	36.1 kMESF (inactive)
O=C(NNC(=S)NC(=O)C12CC3CC(CC(C3)C1)C2)c1ccncc1	33.2 kMESF (inactive)
CCc1sc(C(=O)Nc2nc(-c3ccccn3)cs2)cc1C	27.9 kMESF (inactive)
N#Cc1cc([N+](=O)[O-])c(-n2nnc3ccccc32)c([N+](=O)[O-])c1	41.5 kMESF (inactive)
Cc1cc2ccccn2c1C(=O)c1ccc([N+](=O)[O-])o1	26 kMESF (inactive)
O=[N+]([O-])c1ccc(O)c2ncccc12	39.4 kMESF (inactive) and 32.2 kMESF (inactive)
c1ccc(-c2cccc(-c3ccccn3)n2)nc1	38.3 kMESF (inactive)
COc1cc(/C=C2\CC/C(=C\c3cc(OC)c(O)c(OC)c3)C2=O)cc(OC)c1O	34.6 kMESF (inactive)
Cc1ccc(-c2nc(N)c3c(-c4ccc(C)cc4)nn(C(C)(C)C)c3n2)cc1	38.4 kMESF (inactive)
O=C(/C=C/c1ccc(Cl)c([N+](=O)[O-])c1)c1cccnc1	35.8 kMESF (inactive)
O=C1CC(c2ccccc2)=NN1c1nc(-c2ccccc2)cs1	26 kMESF (inactive)
O=[N+]([O-])c1ccc(O)c(/C=N/Nc2ccccn2)c1	30.3 kMESF (inactive)
Cc1ccc(S(=O)(=O)ON2C(=O)c3ccccc3C2=O)c(C)c1	33 kMESF (inactive)
O/C=c1\ccc2cccc3nc(C(F)(F)F)nc1c23	40.7 kMESF (inactive)
Cc1cc(C(=O)COC(=O)c2ccc[nH]c2=O)c(C)n1-c1ccccc1F	24.1 kMESF (inactive)
O=C1C(Cl)=C(Nc2ccccc2O)C(=O)N1CCc1ccccc1	39.3 kMESF (inactive)
Oc1c(CN2CCN(c3ccccc3)CC2)cc(Br)c2cccnc12	39 kMESF (inactive)
CNC(CC(=O)c1ccc([N+](=O)[O-])cc1)C(Cl)(Cl)Cl (stereo unspecified)	25.2 kMESF (inactive)
O=C(OCC(=O)N1CCN(C(=O)c2ccco2)CC1)c1cc(-c2ccc(F)cc2)nc2ccccc12	49.9 kMESF (inactive) and 40 kMESF (inactive)
CCCCCCCCn1sccc1=O	31.5 kMESF (inactive)
O=C(O)c1ccc2c(c1)C(=O)/C(=C/c1ccccc1)C2=O	40.5 kMESF (inactive)
C=CCOc1cccc(C(=O)/C=C2/C(=O)Nc3ccccc32)c1	43.2 kMESF (inactive)
Fc1cccc(Nc2ncnc3c2cnn3-c2ccccc2)c1	37 kMESF (inactive)

Compound	GFP fluorescence (kMESF)
CC[C@]1(c2ccccc2C)ON(c2ccccc2C(F)(F)F)C1=O	38.9 kMESF (inactive)
CC(=O)SC(C[N+](=O)[O-])c1cn(C(C)=O)c2ccccc12 (stereo unspecified)	36.3 kMESF (inactive)
Cc1ccc2[nH]c(C)c(/C=C/c3cc[n+](C)cc3)c2c1	38.4 kMESF (inactive)
O=C1ON=C(c2ccccc2)/C1=C/c1ccc(-c2ccccc2[N+](=O)[O-])o1	29.1 kMESF (inactive)
Cc1[nH]n(-c2ncc(-c3ccccc3)s2)c(=O)c1C(c1ccc(Cl)cc1)C(C#N)C#N (stereo unspecified)	40.6 kMESF (inactive)
O=C(/C=C/c1ccccn1)c1ccc(Br)cc1O	20.4 kMESF (inactive)
C/C(=N\NC(=O)c1cccc(Br)c1)c1ccccn1	42.1 kMESF (inactive)
O=c1cc(CSc2ccc(Cl)cc2)nc(-c2ccccn2)[nH]1	25.7 kMESF (inactive)
COc1ccc(C2=CC(=O)N(Nc3ccccc3)C2=O)cc1	39.9 kMESF (inactive)
COc1ccc(C(c2c(C)[nH]n(C(N)=S)c2=O)C(C#N)C#N)cc1 (stereo unspecified)	44.2 kMESF (inactive)
Cn1c(=O)c(C(=O)NNC(=O)c2ccc(Br)cc2)c(O)c2ccccc21	26.2 kMESF (inactive)
O=C(NC(=S)NNC(=O)c1cnccn1)c1ccc(F)cc1	37.3 kMESF (inactive)
COc1ccc(/C=C/C(=O)c2cc(Br)ccc(=O)c2O)cc1	-39.3 kMESF (inactive)
Oc1ccc(N=Nc2ccccc2)o1	49 kMESF (inactive)
COc1ccccc1[C@]1(C)ON(c2ccccc2C(F)(F)F)C1=O	30.3 kMESF (inactive)
COc1cc(/C=C2/C(=O)c3cccc([N+](=O)[O-])c3C2=O)c(Br)cc1O	32.9 kMESF (inactive)
CC(Oc1cc2oc(=O)c3c(c2cc1Cl)CCC3)C(=O)NCCN1CCOCC1 (stereo unspecified)	34.8 kMESF (inactive)
COc1ccc(NC(=O)/C(Cl)=C(/Cl)S(=O)Cc2ccccc2)cn1 (stereo unspecified)	38.3 kMESF (inactive)
Cc1ccsc1/C=C1\C(=O)NC(=S)N(C)C1=O	20.6 kMESF (inactive)
CCCCS(=O)(=O)/C=C\C=C/S(=O)(=O)CCCC	26.3 kMESF (inactive)
CC(=O)Oc1cccc(N2C(=O)c3cccc4c([N+](=O)[O-])ccc(c34)C2=O)c1	31.2 kMESF (inactive)
COc1ccccc1C(=O)NNC(=S)NC(=O)c1cccs1	48 kMESF (inactive)
O=C(Oc1c(Cl)cc(Cl)c2cccnc12)c1ccco1	40.7 kMESF (inactive)

Compound	GFP fluorescence (kMESF)
O=C1C=CC(=O)N1c1cccc(-c2ccccc2)c1	44.7 kMESF (inactive)
O=c1cc(-c2ccccc2)cc(-c2ccccc2)n1O	22.5 kMESF (inactive)
CCc1ccc(C(=O)/C=C/c2ccc([N+](=O)[O-])o2)cc1	49.5 kMESF (inactive)
CC(=O)N(\C=C/C=C/C=C1\Sc2ccccc2C1=O)c1ccccc1	38.7 kMESF (inactive)
O=C(NCc1ccc2c(c1)OCO2)c1nc(S(=O)(=O)Cc2ccccc2)ncc1Cl	40.9 kMESF (inactive)
COc1ccc(C(=O)/C=C2/C(=O)Nc3ccccc32)cc1	44.8 kMESF (inactive)
Cc1ccc(C(=O)O/N=C(\N)Cc2cccs2)c(Cl)c1	22.9 kMESF (inactive)
O=C(Oc1ccnc2cc(Cl)ccc12)N1CCOCC1	35.7 kMESF (inactive)
CC(C)CC(=O)NC(=S)Nc1nc(-c2ccccc2)cs1	38.8 kMESF (inactive)
O=S1(=O)C=C(Sc2nc3ccccc3s2)c2ccccc21	34.3 kMESF (inactive)
O=C(Oc1c(Cl)cc(Cl)c2cccnc12)c1cccc([N+](=O)[O-])c1	34.3 kMESF (inactive)
CCN1/C(=C/C=C/c2sc3ccccc3[n+]2CC)Sc2ccccc21	70 kMESF (inactive)
Cc1cc(Br)c2c(c1)/C(=C/C(=O)c1cccs1)C(=O)N2	38.7 kMESF (inactive)
COc1ccccc1OCCCc1c(C)n[nH]c1C	31.1 kMESF (inactive)
Cc1cc(C2CCCCC2)n(O)c(=O)c1	37.5 kMESF (inactive)
C=CCn1c(C)c(/C=C/c2cc[n+](C)cc2)c2ccccc21	42.5 kMESF (inactive)
Oc1ccc2ccccc2c1/C=N/Nc1nnc(-c2ncc[nH]2)c2ccccc12	21.8 kMESF (inactive)
COc1ccc([N+](=O)[O-])c(S(=O)(=O)c2ccc(Cl)cc2)n1	37.1 kMESF (inactive)
Cc1cc(NC(=O)c2cccnc2Cl)ccc1NC(=O)c1cc2ccccc2o1	42.4 kMESF (inactive)
CN1C(=O)/C(=N\OC(=O)c2cccc3ccccc23)c2ccccc21	38.2 kMESF (inactive)
CC(C)(C)n1nc(-c2ccc(F)cc2)c2c(N)ncnc21	40.2 kMESF (inactive)
CCc1ccc(/C=C/C(=O)c2cc(Br)ccc(=O)c2O)cc1	22.2 kMESF (inactive)
O=C1c2ccccc2C(=O)C2OC12 (stereo unspecified)	33.7 kMESF (inactive)

Compound	GFP fluorescence (kMESF)
O=c1c2cc(Br)ccc2nc(-c2ccc([N+](=O)[O-])cc2)n1O	29.6 kMESF (inactive)
O=[N+]([O-])c1cc(CN2CCN(c3ccccc3)CC2)c(O)c2ncccc12	27 kMESF (inactive)
CCCCc1ccc(NC(=O)CC(C)=O)cc1	37.2 kMESF (inactive)
CN(c1ccccc1)c1ccc(/C=c2\s/c(=C(/C#N)C(=O)C(C)(C)C)n(Cc3ccco3)c2=O)cc1	38 kMESF (inactive)
O=C(Nc1ccccc1)ON=C1CCCC1	21.6 kMESF (inactive)
CC1=C/C(=N\OS(=O)(=O)c2ccccc2)C(C(C)C)=CC1=O	28.8 kMESF (inactive)
CC(C)(C)C1C/C(=C/c2ccccn2)C(=O)/C(=C/c2ccccn2)C1 (stereo unspecified)	32.6 kMESF (inactive)
Cc1cccc(/C=C/C(=O)c2ccc([N+](=O)[O-])o2)c1	19.2 kMESF (inactive)
O=C1NC(=S)NC(=O)C1=Cc1ccc2c(c1)CCN2CCCCl	35 kMESF (inactive)
CC(=O)Oc1ccc(N2C(=O)C3C4C=CC(CO)(O4)C3C2=O)cc1 (stereo unspecified)	41.3 kMESF (inactive)
CC1(C(=O)NC(=S)NNC(=O)c2ccncc2)CCCCC1	34.2 kMESF (inactive)
O=c1/c(=C/c2cccc3ccccc23)sc2ncnn12	36.7 kMESF (inactive)
COc1ccccc1C(=O)NNC(=S)NC(=O)c1ccco1	38.7 kMESF (inactive)
O=C1C2C3C=CC(CO)(O3)C2C(=O)N1c1ccc(-c2ccccc2)cc1 (stereo unspecified)	40.8 kMESF (inactive)
COc1cccc(/C=C/C(=O)c2c(O)cc(C)oc2=O)c1O	43.2 kMESF (inactive)
Cc1ccc(C(=O)Oc2oc(-c3ccccc3)nc2C=Nc2ccc(N(C)C)cc2)cc1	39.3 kMESF (inactive)
COc1ccc2c(/C=C/c3cc[n+](C)cc3)c[nH]c2c1	44.4 kMESF (inactive)
CCCS(=O)(=O)c1nnnn1-c1cccc(OC)c1	35.1 kMESF (inactive)
CN(C)c1ccc(N=Cc2nc(-c3ccccc3)oc2OC(=O)c2cccc(Cl)c2)cc1	30.1 kMESF (inactive)
CCOC(=O)CSC1=NC(=O)/C(=C/c2ccc(OC)cc2)S1	43.4 kMESF (inactive)
COC(=O)c1cc(N2C(=O)C3C(C2=O)C2(C)C=CC3(C)O2)ccc1Cl (stereo unspecified)	47.1 kMESF (inactive)
Nc1nc2ncc(CNc3ccc(C(=O)N[C@@H](CCC(=O)O)C(=O)O)cc3)nc2c(=O)[nH]1	29.1 kMESF (inactive)
